ChEMBL document CHEMBL4420076, “Amylin and calcitonin receptor agonist” (2017)
Numbered stars: 1 amine (or outer) side, 2 acyl side, 3 side chain; on linkers, the order of the positions; unused ones are H or OH. Side chains are listed from the residue outwards. Peptide text beside a SMILES is read from it. * marks the point of attachment. C20 diacid = O=C(O)CCCCCCCCCCCCCCCCCCC(=O)*; γGlu = O=C(O)[C@H](CCC(=O)[*:2])N[*:1]; C14 diacid = O=C(O)CCCCCCCCCCCCC(=O)*

Tests used:
[1] = Solubility in 100 mM glycylglycine buffer at pH 4.0 incubated for 18 hrs by UPLC analysis; format: physicochemical
[2] = molecular target: T1, Amylin receptor AMY3; CALCR/RAMP3 (Homo sapiens, UniProt O60896+P30988); assay: Displacement of [125I]-labeled rat amylin from human amylin receptor expressed in BHK tkts13 whole cells co-expressing RAMP3 incubated for 60 mins by scintillation proximity assay; format: cell-based
T1 sequence (P30988 whole entry): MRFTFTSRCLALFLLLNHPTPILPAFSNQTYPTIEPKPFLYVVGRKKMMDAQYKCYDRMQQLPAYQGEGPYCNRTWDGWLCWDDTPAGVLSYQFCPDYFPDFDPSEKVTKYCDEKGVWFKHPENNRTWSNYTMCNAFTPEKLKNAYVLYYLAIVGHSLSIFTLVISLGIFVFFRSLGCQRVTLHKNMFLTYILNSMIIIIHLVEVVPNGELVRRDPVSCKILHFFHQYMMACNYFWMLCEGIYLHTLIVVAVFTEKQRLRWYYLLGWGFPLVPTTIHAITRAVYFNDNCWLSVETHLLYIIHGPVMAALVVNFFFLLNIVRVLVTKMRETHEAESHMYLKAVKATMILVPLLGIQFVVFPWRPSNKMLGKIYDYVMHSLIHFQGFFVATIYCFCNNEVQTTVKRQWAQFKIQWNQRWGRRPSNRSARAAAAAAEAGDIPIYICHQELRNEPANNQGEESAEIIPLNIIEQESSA
T1 sequence (O60896 whole entry): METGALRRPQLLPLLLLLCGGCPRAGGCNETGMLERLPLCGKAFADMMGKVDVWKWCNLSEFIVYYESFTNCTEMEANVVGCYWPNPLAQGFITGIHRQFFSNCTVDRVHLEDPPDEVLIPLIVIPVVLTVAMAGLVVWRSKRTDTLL

[3] = Solubility in 100 mM bistrispropane buffer at pH 6.5 incubated for 18 hrs by UPLC analysis; format: physicochemical
[4] = Stability in pH 7.5 buffer assessed as lag time for fibril formation at 1 uM by Thioflavin T based fluorescence assay; format: physicochemical; conditions: pH 7.5, 1 µM
[5] = test system: Rattus norvegicus; assay: Reduction in food intake in Sprague-Dawley rat at 3 nmol/kg measured 0 to 24 hrs post dose relative to control; format: functional; design: scale not given: the % may be the effect or the level left
[6] = test system: Rattus norvegicus; assay: Reduction in food intake in Sprague-Dawley rat at 3 nmol/kg measured 24 to 48 hrs post dose relative to control; format: functional; design: scale not given: the % may be the effect or the level left
[7] = molecular target: T2, Calcitonin receptor (Homo sapiens, UniProt P30988); assay: Agonist activity at human calcitonin receptor expressed in BHK570 cells assessed as increase in intracellular cAMP concentration incubated for 3 hrs in presence of 10% FBS by CRE luciferase reporter gene assay; format: functional, cell-based
T2 sequence (P30988 whole entry): T1 sequence (P30988 whole entry)

[8] = Solubility in 100 mM bistrispropane buffer at pH 7.5 incubated for 18 hrs by UPLC analysis; format: physicochemical
[9] = molecular target: T2, Calcitonin receptor; assay: Agonist activity at human calcitonin receptor expressed in BHK570 cells assessed as increase in intracellular cAMP concentration incubated for 3 hrs in absence of albumin by CRE luciferase reporter gene assay; format: functional, cell-based
[10] = Stability in pH 7.5 buffer assessed as compound recovery at 1 uM by Thioflavin T based fluorescence assay; format: physicochemical; conditions: read-out: Drug recovery
[11] = Solubility in 100 mM bistrispropane buffer at pH 6.0 incubated for 18 hrs by UPLC analysis; format: physicochemical
[12] = molecular target: T1, Amylin receptor AMY3; CALCR/RAMP3; assay: Agonist activity at human amylin receptor expressed in BHK570 cells co-expressing RAMP3 assessed as increase in intracellular cAMP concentration incubated for 3 hrs in absence of albumin by CRE luciferase reporter gene assay; format: functional, cell-based
[13] = Solubility in 100 mM bistrispropane buffer at pH 8.0 incubated for 18 hrs by UPLC analysis; format: physicochemical
[14] = molecular target: T3, Amylin receptor AMY3; CALCR/RAMP3 (Rattus norvegicus, UniProt P32214+Q9JJ73); assay: Displacement of [125I]-labeled rat amylin from rat amylin receptor expressed in BHK tkts13 cell membranes co-expressing RAMP3 incubated for 120 mins by scintillation proximity assay
T3 sequence (P32214 whole entry): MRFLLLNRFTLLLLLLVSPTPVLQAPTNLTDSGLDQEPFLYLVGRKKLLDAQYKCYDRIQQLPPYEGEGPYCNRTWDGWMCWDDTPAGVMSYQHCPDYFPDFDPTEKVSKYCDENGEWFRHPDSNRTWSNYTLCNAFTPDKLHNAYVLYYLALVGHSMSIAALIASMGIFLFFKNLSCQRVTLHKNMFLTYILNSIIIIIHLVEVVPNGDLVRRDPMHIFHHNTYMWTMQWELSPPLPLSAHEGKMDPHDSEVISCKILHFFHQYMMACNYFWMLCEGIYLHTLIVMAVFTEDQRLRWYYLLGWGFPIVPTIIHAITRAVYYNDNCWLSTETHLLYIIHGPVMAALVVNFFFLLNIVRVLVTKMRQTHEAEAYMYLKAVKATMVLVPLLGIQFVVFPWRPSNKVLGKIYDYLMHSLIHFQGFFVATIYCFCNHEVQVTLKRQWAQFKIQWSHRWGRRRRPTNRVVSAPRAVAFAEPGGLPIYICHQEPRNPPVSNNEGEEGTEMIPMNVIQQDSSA
T3 sequence (Q9JJ73 whole entry): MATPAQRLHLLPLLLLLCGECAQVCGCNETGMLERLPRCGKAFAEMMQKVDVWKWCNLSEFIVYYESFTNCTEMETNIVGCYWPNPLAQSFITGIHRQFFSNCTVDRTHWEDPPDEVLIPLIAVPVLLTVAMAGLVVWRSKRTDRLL

[15] = Solubility in 100 mM bistrispropane buffer at pH 7.0 incubated for 18 hrs by UPLC analysis; format: physicochemical
[16] = Solubility in 100 mM glycylglycine buffer at pH 3.0 incubated for 18 hrs by UPLC analysis; format: physicochemical
[17] = molecular target: T1, Amylin receptor AMY3; CALCR/RAMP3; assay: Agonist activity at human amylin receptor expressed in BHK570 cells co-expressing RAMP3 assessed as increase in intracellular cAMP concentration incubated for 3 hrs in presence of 10% FBS by CRE luciferase reporter gene assay; format: functional, cell-based
[18] = Solubility in 100 mM glycylglycine buffer at pH 5.0 incubated for 18 hrs by UPLC analysis; format: physicochemical
[19] = molecular target: T2, Calcitonin receptor; assay: Displacement of [125I]-labeled human calcitonin from human calcitonin receptor expressed in BHK tkts13 cell membranes incubated for 1 hr by scintillation proximity assay

SMILES | solubility at 18 h [1] | IC50 [2] | solubility at 18 h [3] | Time [4] | Activity [5] | Activity [6] | EC50 [7] | solubility at 18 h [8] | EC50 [9] | remaining at 1 µM [10] | solubility at 18 h [11] | EC50 [12] | solubility at 18 h [13] | IC50 [14] | solubility at 18 h [15] | solubility at 18 h [16] | EC50 [17] | solubility at 18 h [18] | IC50 [19]
CC(C)C[C@H](NC(=O)CNC(=O)[C@H](CO)NC(=O)[C@H](C)NC(=O)COCCOCCNC(=O)COCCOCCNC(=O)CC[C@H](NC(=O)CCCCCCCCCCCCCCCCC(=O)O)C(=O)O)C(=O)N[C@@H](CO)C(=O)N[C@H](C(=O)N[C@@H](C)C(=O)N[C@H](C(=O)N[C@@H](CC(C)C)C(=O)NCC(=O)N[C@@H](CCCNC(=N)N)C(=O)N[C@@H](CC(C)C)C(=O)N[C@@H](CO)C(=O)N[C@@H](CCC(N)=O)C(=O)N[C@@H](CCC(=O)O)C(=O)N[C@@H](CC(C)C)C(=O)N[C@@H](Cc1cnc[nH]1)C(=O)N[C@@H](CCC(=O)O)C(=O)N[C@@H](CC(C)C)C(=O)N[C@@H](CCC(N)=O)C(=O)N[C@H](C(=O)N[C@@H](Cc1ccc(O)cc1)C(=O)N1CCC[C@H]1C(=O)N[C@@H](CCCNC(=N)N)C(=O)N[C@H](C(=O)N[C@@H](CCC(=O)O)C(=O)N[C@H](C(=O)NCC(=O)N[C@@H](CO)C(=O)NCC(=O)N[C@H](C(=O)N[C@@H](Cc1ccc(O)cc1)C(N)=O)[C@@H](C)O)[C@@H](C)O)[C@@H](C)O)[C@@H](C)O)C(C)C)[C@@H](C)O | ≥ 200 µM | 0.801 nM | ≥ 200 µM | > 45 h | 0% | 0% | 0.038 nM | ≥ 200 µM | 0.022 nM | 100% | ≥ 200 µM | 0.05 nM | ≥ 200 µM | 0.357 nM | ≥ 200 µM | ≥ 200 µM | 0.08 nM | – | –
CC(C)C[C@H](NC(=O)[C@H](C)NC(=O)[C@H](C)NC(=O)[C@@H](NC(=O)[C@H](CO)NC(=O)[C@H](CC(C)C)NC(=O)[C@H](CCC(=O)O)NC(=O)[C@H](CO)NC(=O)[C@H](C)N)[C@@H](C)O)C(=O)NCC(=O)N[C@@H](CCCNC(=N)N)C(=O)N[C@@H](CC(C)C)C(=O)N[C@@H](CO)C(=O)N[C@@H](C)C(=O)N[C@@H](CCCCNC(=O)CC[C@H](NC(=O)CCCCCCCCCCCCCCCCCCC(=O)O)C(=O)O)C(=O)N[C@@H](CC(C)C)C(=O)N[C@@H](Cc1cnc[nH]1)C(=O)N[C@@H](CCC(=O)O)C(=O)N[C@@H](CC(C)C)C(=O)N[C@@H](C)C(=O)N[C@H](C(=O)N[C@@H](CC(C)C)C(=O)N1CCC[C@H]1C(=O)N[C@@H](CCCNC(=N)N)C(=O)N[C@H](C(=O)N[C@@H](CCC(=O)O)C(=O)N[C@H](C(=O)NCC(=O)N[C@@H](CO)C(=O)NCC(=O)N[C@@H](CO)C(=O)N1CCC[C@H]1C(N)=O)[C@@H](C)O)[C@@H](C)O)[C@@H](C)O (H-ASELSTAALGRLSAK([γGlu-C20 diacid])LHELATLPRTETGSGSP-NH2) | ≥ 200 µM | – | ≥ 200 µM | > 45 h | – | – | 0.048 nM | ≥ 200 µM | 0.031 nM | 100% | ≥ 200 µM | 0.022 nM | ≥ 200 µM | 1.3 nM | ≥ 200 µM | ≥ 200 µM | 0.057 nM | ≥ 200 µM | –
CC(C)C[C@H](NC(=O)[C@H](C)NC(=O)[C@H](C)NC(=O)[C@@H](NC(=O)[C@H](CO)NC(=O)[C@H](CC(C)C)NC(=O)[C@H](CCC(=O)O)NC(=O)[C@H](CO)NC(=O)[C@H](C)NC(=O)CCCCCCCCCCCCC(=O)O)[C@@H](C)O)C(=O)NCC(=O)N[C@@H](CCCNC(=N)N)C(=O)N[C@@H](CC(C)C)C(=O)N[C@@H](CO)C(=O)N[C@@H](C)C(=O)N[C@@H](CCC(=O)O)C(=O)N[C@@H](CC(C)C)C(=O)N[C@@H](Cc1cnc[nH]1)C(=O)N[C@@H](CCC(=O)O)C(=O)N[C@@H](CC(C)C)C(=O)N[C@@H](C)C(=O)N[C@H](C(=O)N[C@@H](CC(C)C)C(=O)N1CCC[C@H]1C(=O)N[C@@H](CCCNC(=N)N)C(=O)N[C@H](C(=O)N[C@@H](CCC(=O)O)C(=O)N[C@H](C(=O)NCC(=O)N[C@@H](CO)C(=O)NCC(=O)N[C@@H](CO)C(=O)N1CCC[C@H]1C(N)=O)[C@@H](C)O)[C@@H](C)O)[C@@H](C)O ({C14 diacid}-ASELSTAALGRLSAELHELATLPRTETGSGSP-NH2) | ≥ 200 µM | – | ≥ 200 µM | – | – | – | 0.004 nM | ≥ 200 µM | 0.005 nM | – | ≥ 200 µM | 0.007 nM | ≥ 200 µM | – | ≥ 200 µM | ≥ 200 µM | 0.006 nM | ≥ 200 µM | 0.14 nM
CC(C)C[C@H](NC(=O)CNC(=O)[C@H](CO)NC(=O)[C@H](C)NC(=O)CC[C@H](NC(=O)CCCCCCCCCCCCCCCCCCC(=O)O)C(=O)O)C(=O)N[C@@H](CO)C(=O)N[C@H](C(=O)N[C@@H](CC(C)C)C(=O)N[C@H](C(=O)N[C@@H](CC(C)C)C(=O)NCC(=O)N[C@@H](CCCNC(=N)N)C(=O)N[C@@H](CC(C)C)C(=O)N[C@@H](CO)C(=O)N[C@@H](CCC(N)=O)C(=O)N[C@@H](CCC(=O)O)C(=O)N[C@@H](CC(C)C)C(=O)N[C@@H](Cc1cnc[nH]1)C(=O)N[C@@H](CCC(=O)O)C(=O)N[C@@H](CC(C)C)C(=O)N[C@@H](CCC(N)=O)C(=O)N[C@H](C(=O)N[C@@H](Cc1ccc(O)cc1)C(=O)N1CCC[C@H]1C(=O)N[C@@H](CCCNC(=N)N)C(=O)N[C@H](C(=O)N[C@@H](CCC(=O)O)C(=O)N[C@H](C(=O)NCC(=O)N[C@@H](CO)C(=O)N[C@@H](CCC(N)=O)C(=O)N[C@H](C(=O)N[C@@H](Cc1ccc(O)cc1)C(N)=O)[C@@H](C)O)[C@@H](C)O)[C@@H](C)O)[C@@H](C)O)C(C)C)[C@@H](C)O ({C20 diacid-γGlu}-ASGLSTLVLGRLSQELHELQTYPRTETGSQTY-NH2) | – | 1.48 nM | ≥ 200 µM | 8.4 h | 34% | 24% | 0.142 nM | ≥ 200 µM | 0.04 nM | 90% | – | 0.052 nM | ≥ 200 µM | 0.091 nM | ≥ 200 µM | ≥ 200 µM | – | – | –
